Laboratory results reported in patent US10239825B2, “Ketamine derivatives” (Auckland Uniservices Limited, priority 2013, dated 2019).

Assays:
[1] = test system: adult female Sprague-Dawley rats; assay: rat infusion study: loss/recovery of righting reflex and walk (anaesthetic effect); assay type: in vivo; details: for minimal effective dose: Rattus norvegicus, iv, total drug administered to achieve loss of righting reflex, i.v. infusion, read-out: LRR Dose; for LRR Dose, head-to-head ratio to ketamine / LRR Time, head-to-head ratio to ketamine / Walk Time, head-to-head ratio to ketamine / RRR Time, head-to-head ratio to ketamine: ratio compound/ketamine; for Walk Time: time from end of infusion to independent locomotion; for RRR Time: time from end of infusion to recovery of righting reflex; for LRR Time: time from onset of i.v. infusion to loss of righting reflex, 20 mg/kg/min initially
Method: (§1) All animal experiments were conducted at the Ruakura Research Centre, Hamilton, New Zealand, using experimental protocols reviewed and approved by the Ruakura Animal Ethics Committee (ethics ref 12604).
(§2) Following acquisition of baseline physiologic parameters (heart rate, respiratory rate, PWR, and righting reflex (RR)) adult female Sprague-Dawley rats of approximately 350-450 g were put under non-traumatic restraint and the marginal vein of the tail was cannulated. Ketamine or a compound of the invention at 10 mg/ml was administered via a minibore extension tube adequately secured to the tail. Infusions were commenced at a rate (weight-adjusted) to deliver 20 mg/kg/min initially (until the pedal withdrawal reflex score PWR=1), then were reduced to a rate of 6.7 mg/kg/min. Infusion rate was then titrated in an up-and-down fashion to maintain dorsal recumbency and a PWR=1 to 10 minutes before cessation. Three rats were used in each study, with each group of rats also acting as their own ketamine control. The order of study drug administration was determined by prior odds/evens randomisation with a recovery interval of at least one hour afforded between experiments. PWR and RR were recorded at 1 minute intervals throughout. The times from cessation of infusion to return of righting reflex (RRR), and from cessation of infusion to the animals displaying independent locomotion (walk) were recorded.
Loss of Righting Reflex (LRR):
This is primarily used to assess anaesthetic hypnotic effect. Righting reflex is judged absent when the rat fails to right from a position of dorsal recumbency to a position of sternal recumbency on three attempts performed in rapid succession. Dose to LRR is termed effective potency.

[2] = test system: adult female Sprague-Dawley rats; assay: rat infusion study: pedal withdrawal reflex PWR = 1 (analgesic effect); assay type: in vivo; details: for minimal effective dose: Rattus norvegicus, iv, total drug administered to achieve PWR = 1, i.v. infusion; for PWR = 1 Dose, head-to-head ratio to ketamine / PWR = 1 Time, head-to-head ratio to ketamine: ratio compound/ketamine; for PWR = 1 Time: time from onset of i.v. infusion to PWR = 1
Method: as §1, §2
Pedal Withdrawal Reflex (PWR) Scoring:
Nociceptive testing in animals was conducted via 1 second application of constant pressure (firm digital pressure) over the forepaw of the animal. Pedal withdrawal reflex testing is primarily used to assess analgesic effect, and responses are graded accordingly: 0, absent; 1, flicker; 2, moderate withdrawal; 3, fast withdrawal; 4, Fast withdrawal with cry/preceding apnoea (modified from Buitrago, S. et al. J. Amer. Assoc. Lab. Animal. Sci. 2008, 47, 11-17).

[3] = test system: adult female Sprague-Dawley rats; assay: rat infusion study: loss/recovery of righting reflex and walk (anaesthetic effect); assay type: in vivo; details: exploratory, mostly single-animal evaluations

Compound | minimal effective dose [1] | potency (in words) ([1]; rat infusion study, discussion) | LRR Dose, head-to-head ratio to ketamine [1] | LRR Time, head-to-head ratio to ketamine [1] | Walk Time, head-to-head ratio to ketamine [1] | Walk Time [1] | RRR Time [1] | LRR Time [1] | minimal effective dose [2] | PWR = 1 Dose, head-to-head ratio to ketamine [2] | PWR = 1 Time, head-to-head ratio to ketamine [2] | PWR = 1 Time [2] | sedative effect (in words) [3] | recovery (in words) ([1]; rat infusion study, discussion) | RRR Time, head-to-head ratio to ketamine [1] | melting point
COC(=O)CCCCN(C)C1(c2ccccc2Cl)CCCCC1=O (stereo not drawn) [compound 21, Methyl 5-((1-(2-chlorophenyl)-2-oxocyclohexyl)(methyl)amino)pentanoate] | 145 mg/kg | less potent | 7.25 | 7.37 | 0.09 | 201 s | 0 s | 420 s | 148 mg/kg | 5.29 | 5.30 | 435 s | weak sedative activity | – | – | –
CC(C)OC(=O)CCN[C@]1(c2ccccc2Cl)CCCCC1=O.Cl [(S)-C2iPr, (S)-Isopropyl 3-((1-(2-chlorophenyl)-2-oxocyclohexyl)amino)propanoate hydrochloride] | 74 ± 9 mg/kg | only half as potent | 2.46 | 3.41 | 0.19 | 224 ± 90 s | 15 ± 15 s | 222 ± 18 s | 84 ± 4 mg/kg | 2.47 | 3.14 | 247 ± 13 s | – | faster recoveries than the corresponding racemates | 0.02 | 208 to 211 °C
CCOC(=O)CCNC1(c2ccccc2Cl)CCCCC1=O.Cl (racemic) [rac-C2Et, Ethyl 3-((1-(2-chlorophenyl)-2-oxocyclohexyl)amino)propanoate Hydrochloride] | 48 ± 23 mg/kg | – | 1.78 | 1.75 | 0.10 | 253 ± 68 s | 177 ± 51 s | 135 ± 61 s | 55 ± 25 mg/kg | 1.45 | 1.62 | 154 ± 68 s | – | – | 0.11 | 199 to 202 °C
CC(C)OC(=O)CCN[C@@]1(c2ccccc2Cl)CCCCC1=O.Cl [(R)-C2iPr, (R)-Isopropyl 3-((1-(2-chlorophenyl)-2-oxocyclohexyl)amino)propanoate Hydrochloride] | 71 mg/kg | – | 2.96 | 3.20 | 0.06 | 900 s | 0 s | 170 s | 82 mg/kg | 3.15 | 2.75 | 190 s | – | – | – | 216 to 219 °C
CCOC(=O)CCCNC1(c2ccccc2Cl)CCCCC1=O.Cl (racemic) [rac-C3Et, Ethyl 4-((1-(2-chlorophenyl)-2-oxocyclohexyl)amino)butanoate Hydrochloride] | 24 ± 2 mg/kg | – | 1.41 | 1.19 | 0.08 | 170 ± 17 s | 95 ± 12 s | 70 ± 6 s | 44 ± 5 mg/kg | 1.83 | 1.80 | 137 ± 14 s | – | – | 0.062 | 186 to 189 °C
